Converted amounts (≈) assume the structure as drawn.
What was measured:
[1] = biological target: T1, Deoxyhypusine synthase (Homo sapiens, UniProt P49366); experiment: Inhibition of DHPS (unknown origin ) incubated for 30 mins by NAD/NADH-Glow assay
T1 sequence (P49366 whole entry): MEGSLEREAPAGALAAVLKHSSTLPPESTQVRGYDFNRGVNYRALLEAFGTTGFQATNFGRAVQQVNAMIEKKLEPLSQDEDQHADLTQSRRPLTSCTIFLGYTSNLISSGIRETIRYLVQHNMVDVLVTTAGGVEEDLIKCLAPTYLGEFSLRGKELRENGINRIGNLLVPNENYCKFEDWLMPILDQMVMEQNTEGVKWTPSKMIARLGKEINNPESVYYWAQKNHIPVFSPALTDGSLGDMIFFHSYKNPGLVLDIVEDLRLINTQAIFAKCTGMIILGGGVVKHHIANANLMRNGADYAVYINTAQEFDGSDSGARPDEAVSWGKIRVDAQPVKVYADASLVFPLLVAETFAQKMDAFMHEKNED

[2] = system: B16; experiment: Cytotoxicity against mouse B16 cells assessed as reduction in cell viability incubated for 24 hrs by CCK-8 assay; format: functional, cell-based; settings: B16, 24 h
[3] = system: A-375; experiment: Cytotoxicity against human A-375 cells assessed as reduction in cell viability incubated for 24 hrs by CCK-8 assay; format: functional, cell-based; settings: A-375, 24 h
[4] = system: SK-MEL-28; experiment: Cytotoxicity against human SK-MEL-28 cells assessed as reduction in cell viability incubated for 24 hrs by CCK-8 assay; format: functional, cell-based; settings: SK-MEL-28, 24 h
[5] = (§1) Cytotoxicity against human HaCaT cells assessed as reduction in cell viability incubated for 24 hrs by CCK-8 assay; format: toxicity, cell-based; settings: HaCaT cells
[6] = Aqueous solubility of compound; format: physicochemical; settings: buffer
[7] = Acute toxicity in zebra fish assessed as lethal concentration measured for 96 hrs; design: species or system Danio rerio; settings: zebrafish
[8] = AUC (0 to t) in Sprague-Dawley rat at 160 mg/kg, ip by UHPLC-MS analysis; format: ADME, organism-based; design: dose 160 mg/kg; settings: in vivo
[9] = AUC (0 to infinity) in Sprague-Dawley rat at 160 mg/kg, ip by UHPLC-MS analysis; format: ADME, organism-based; design: route intraperitoneal, time infinity, dose 160 mg/kg; settings: in vivo
[10] = Half life in Sprague-Dawley rat at 160 mg/kg, ip by UHPLC-MS analysis; format: ADME, organism-based; settings: in vivo
[11] = Clearance in Sprague-Dawley rat at 160 mg/kg, ip by UHPLC-MS analysis; format: ADME, organism-based; settings: in vivo
[12] = Volume of distribution in Sprague-Dawley rat at 160 mg/kg, ip by UHPLC-MS analysis; format: ADME, organism-based; settings: in vivo
[13] = Toxicity in Sprague-Dawley rat assessed as effect on serum AST level at 160 mg/kg, ip (reference value: 69.70 to 332.90 U/L); format: organism-based; settings: in vivo
[14] = Toxicity in Sprague-Dawley rat assessed as effect on serum ALT level at 160 mg/kg, ip (reference value: 33.70 to 98.70 U/L); format: organism-based; settings: in vivo
[15] = Toxicity in Sprague-Dawley rat assessed as effect on serum Glu level at 160 mg/kg, ip (reference value: 2.65 to 7.65 mmol/L); format: organism-based; settings: in vivo
[16] = Toxicity in Sprague-Dawley rat assessed as effect on serum CRE level at 160 mg/kg, ip (19.43 to 64.97 micromol/L); format: organism-based; settings: in vivo
[17] = Effect on intracellular ROS content in human HaCaT cells by DCFH-DA staining-based method; format: toxicity, cell-based
[18] = system: A-375; experiment: Anticancer activity against human A-375 cells xenografted in BALB/c mouse assessed as tumor growth inhibition at 80 mg/kg, ip treated every 3 days measured after 3 weeks relative to control; format: functional; settings: A-375, ip, 504 h, read-out: TGI
[19] = system: HaCaT; experiment: as §1; format: toxicity, cell-based; settings: hacat, 24 h

SMILES	IC50 [1] [µM]	IC50 [2] [µM]	IC50 [3] [µM]	IC50 [4] [µM]	CC50 at 24 h [5] [µM]	other results
COc1ccccc1Oc1c(N)nc(-c2ccc(I)cc2)nc1OCCO	2.29	19.6				
COc1ccccc1Oc1c(N)nc(-c2ccc(C)cc2)nc1OCCO	0.18	8.43	2.38	6.19	56.6	
COc1ccccc1Oc1c(N)nc(-c2ccc(C)cc2)nc1Cl	59.1	17.4	> 80		6.3	
COc1ccccc1Oc1c(N)nc(-c2cccc(C)c2)nc1OCCO	1.17	70.9	1.38	14.7		
COc1ccccc1Oc1c(N)nc(-c2ccc(Cl)cc2)nc1OCCO	38.1	7.74	> 80	> 80		
COc1ccccc1Oc1c(N)nc(-c2cccc(Br)c2)nc1OCCO	4.31	21.9	0.65	4.04		
COc1ccccc1Oc1c(N)nc(-c2cccc(F)c2)nc1Cl		21.7			17	
COc1ccccc1Oc1c(N)nc(-c2ccccc2)nc1OCCO	53.7	31.1	> 80	> 80		
COc1ccccc1Oc1c(N)nc(-c2cccc(Br)c2)nc1Cl	35.8	24.6			16.1	
COc1ccccc1Oc1c(N)nc(-c2cccc(C)c2)nc1Cl	33.7	13.1	65.3	54	11.2	
COc1ccccc1Oc1c(N)nc(-c2ccc(F)cc2)nc1OCCO	2.38	30.1	15.9	20.1	15.1	
COc1ccccc1Oc1c(N)nc(-c2ccc(I)cc2)nc1Cl	0.18	5.4	0.48	1.25		
COc1cccc(-c2nc(N)c(Oc3ccccc3OC)c(OCCO)n2)c1	80	30.4			12.7	
COc1ccccc1Oc1c(N)nc(-c2ccccc2F)nc1Cl	12.9	13.8	> 80		> 80	
COc1ccccc1Oc1c(N)nc(-c2ccccc2F)nc1OCCO	5.43	11.8	> 80		39.5	
COc1ccccc1Oc1c(N)nc(-c2cccc(Cl)c2)nc1Cl	20	17.9	38.3	19.4	> 80	

SMILES	IC50 [1] [µM]	IC50 [2] [µM]	IC50 [3] [µM]	IC50 [4] [µM]	CC50 at 24 h [5] [µM]	other results
COc1ccccc1Oc1c(N)nc(-c2cccc(I)c2)nc1OCCO	0.56	20.3	1.23	11.2		
COc1ccccc1Oc1c(N)nc(-c2ccc(Br)cc2)nc1OCCO	11.8	11.8	10.3	4.4		
COc1ccccc1Oc1c(N)nc(-c2ccc(Br)cc2)nc1Cl	0.014	4.44	0.063	0.014	58.6	logS0 [6]: -4.416; LC50 at 96 h [7]: 3750 µg/mL (≈ 9.23 mM); AUC(0-t) [8]: 2400 ng·h/mL; AUC(0-inf) [9]: 5660 ng·h/mL; half-life [10]: 3.66 h; CL/F [11]: 743 mL/min/kg; Vd [12]: 228.602 L/kg; Activity [13]: 113.1 U/L; Activity [14]: 80.47 U/L; Activity [15]: 4.345 mmol/L; Activity [16]: 24.375 µmol/L; Activity [17]: Non-Toxic; inhibition in vivo at 80 mg/kg [18]: 50.3%
COc1ccccc1Oc1c(N)nc(Cc2ccccc2)nc1Cl	0.05	39.1	15.7	8.65	30.6	
COc1ccccc1Oc1c(N)nc(-c2cccc(I)c2)nc1Cl	38.7	27.6	2.2	4.66		
COc1ccccc1Oc1c(N)nc(-c2cccc(F)c2)nc1OCCO	0.33	20.9	8.53	3.21		
N=C(N)NCCCCCCCN	1.72	5.25	1.48	0.79	3.96	
COc1ccccc1Oc1c(N)nc(-c2ccccc2)nc1Cl	0.53	4.61	7.22	3.14		CC50 [19]: Not Active
COc1cccc(-c2nc(N)c(Oc3ccccc3OC)c(Cl)n2)c1	0.04	23.6	24.6		14	
COc1ccccc1Oc1c(N)nc(Cc2ccccc2)nc1OCCO	0.32	47.4	0.2	14		
COc1ccccc1Oc1c(N)nc(-c2ccc(F)cc2)nc1Cl	0.64	2.99	28.2	31.9	42.6	
COc1ccccc1Oc1c(NS(=O)(=O)c2ccc(C(C)(C)C)cc2)nc(-c2ncccn2)nc1OCCO [BOSENTAN]	60.8	> 80	67.4	53.6		
COc1ccc(-c2nc(N)c(Oc3ccccc3OC)c(OCCO)n2)cc1		18.1				
COc1ccc(-c2nc(N)c(Oc3ccccc3OC)c(Cl)n2)cc1	18.2	47.8	> 80		8.2	
COc1ccccc1Oc1c(N)nc(-c2ccc(Cl)cc2)nc1Cl	0.1	18.8	1.03	0.12		
COc1ccccc1Oc1c(N)nc(-c2cccc(Cl)c2)nc1OCCO	4.42	5.01	30.2	4.17		
